This is an account of results in patent publication US20220348876A1, “METABOLISM GUIDES DEFINITIVE LINEAGE SPECIFICATION DURING ENDOTHELIAL TO HEMATOPOIETIC TRANSITION” (Amniotics AB, priority 2019, published 2022).

The structures appear in SMILES notation.

This test deals with HE cells. Nature of the test: confocal imaging: filipin III and histone acetylation staining. The class given is cell-based, human. To be noted: day 2, DCA-treated HE cells. The protocol: For TMRE staining, on day 3 of subculture, half of the culture medium was removed and cells were stained with 20 nM TMRE (Thermo Fisher Scientific, T669) by direct addition into the culture medium of a 2× concentrated solution. After a 20-minute incubation at 37° C., wells were carefully washed with PBS and fresh HE medium was added. During acquisition, cells were kept in a humidified incubator at 37° C., 5% CO2, 20% O2. For immunocytochemistry, subculture day 2 HE cells (plated on coverslips) were washed twice in PBS, fixed with 4% PFA for 15 minutes at RT and washed three times with PBS. For filipin staining, fixed cells were incubated with 100 μg/ml filipin III (Sigma-Aldrich, F4767) for 1 hour, washed three times with PBS and rinsed with distilled water before mounting with PVA/DABCO. […] Intensity quantification was performed using the Fiji software as follows. For TMRE, using the brightfield channel, ROIs were selected for 5 spindle-shaped and 5 round cells (randomly chosen) and average intensity for each ROI was calculated in a summatory Z-stack of the TMRE channel. For filipin and acetylation, the summatory Z-stack for the filipin channel was obtained and average intensity calculated. A total of 2-3 independent experiments with 2-3 replicate wells were quantified. […]

With `O=C(O)C(Cl)Cl` [DCA, dichloroacetate], the “increase in cholesterol content” value came to 8%.
